The values that follow come from US20200164023A1, “METHODS FOR PREVENTING AND TREATING INTRA-ABDOMINAL CANDIDIASIS” (Cidara Therapeutics, Inc., priority 2017, published 2020).

Values after ≈ are worked out from the molar mass of the structure shown. Numbered stars: 1 amine (or outer) side, 2 acyl side, 3 side chain; on linkers, the order of the positions; unused ones are H or OH. Bridge positions count the residues as written; N and C are the ends. Square brackets hold non-standard residues; d marks the D form. Peptide text beside a SMILES is read from it. * marks the point of attachment. hTyr(3S-OH,4S-OH,3'-OSO3H) = N[C@H](C(=O)O)[C@H](O)[C@@H](O)c1ccc(O)c(OS(=O)(=O)O)c1; Orn(4R-OH,5R-OH) = O=C([C@H](C[C@@H](O)[C@@H](O)N[*:3])N[*:1])[*:2]; Pro(3S-OH,4S-Me) = C[C@H]1CN[C@H](C(=O)O)[C@H]1O; X1 = CCCCCOc1ccc(-c2cc(-c3ccc(C(=O)*)cc3)no2)cc1; Gln(3R-OH) = NC(=O)C[C@@H](O)[C@H](N)C(=O)O; Hyp = O=C(O)[C@@H]1C[C@@H](O)CN1

A short description of data set [1]: Laser-capture microdissection and LC/MS-MS drug quantification in liver lesions and surrounding tissue, mouse IAC model. It counts as in vivo. As to conditions: for concentration at 24 h / concentration at 6 h: female, CD1, mouse, in vivo, 5 mg/kg; for concentration at 6 h: 6 hours post-dose. As to the method: A mouse model of IAC was used for this study. Female six to eight week old CD1 mice (Charles River Laboratories) weighing 18-22 g were infected intraperitoneally (IP) with 1×10^7 CFU of C. albicans SC5314 mixed with sterile stool matrix as previously described. […] Mice were sacrificed just before antifungal treatment (n=1), and at 1, 3, 6, 24, and 48 hours post-dose (three mice per group per time point). Livers and kidneys were explored for abscesses >1 mm in diameter, dissected, placed on a cryohistology tray, and snap-frozen in liquid nitrogen and stored at −80° C. for tissue sectioning for MALDI imaging.
In a further experiment, a low dose of CD101 at 5 mg/kg was administered and micafungin was given at the same dose. Liver and kidney samples were collected at 6 hours and 24 hours post-dose for both MALDI imaging and absolute drug quantification.
In another separate experiment that aimed at comparing therapeutic level of single dose CD101 and multiple doses of micafungin, a single dose of CD101 at 20 mg/kg was given at day three post-inoculation, and once daily treatment of micafungin at 5 mg/kg starting from day three post-inoculation and a total of three doses of micafungin was administered. Livers and kidneys were collected at 48 hours and 72 hours post first dose of each drug.
Laser-capture microdissection. Necrotic lesion and surrounding tissue areas totaling two to […] were dissected from between three and six serial liver or kidney biopsy tissue sections using a Leica LMD6500 system (Buffalo Grove, Ill.). Lesion areas were identified optically from the brightfield image scan and by comparison to the adjacently-sectioned H&E reference tissue. Pooled dissected lesion tissues were collected into 0.25 ml standard PCR tubes and immediately transferred to the −80° C. freezer for storage.
Prior to analysis, the tubes were thawed at room temperature for 30 minutes. 50 μl of extraction solution (ACN/MeOH (1/1) with 100 ng/ml CD101-D9 and 100 ng/ml ^13C6-micafungin) was added to each tube, which were then sonicated for five min and centrifuged at 10000 RPM for five min at room temperature. 40 μl of supernatant was transferred for LC/MS-MS analysis and diluted with an additional 40 μl of MilliQ water.
Neat 1 mg/ml DMSO stocks for all compounds were serial diluted in 50/50 acetonitrile water to create standard curves and quality control spiking solutions. 3 μl of neat spiking solutions were added to 2 μl of lesion homogenate and extraction was performed by adding 50 μl of extraction solution (ACN/MeOH (1/1) with 100 ng/ml CD101-D9 and 100 ng/ml ^13C6-micafungin). Extracts were vortexed for five minutes and centrifuged at 10000 RPM for five min. A 40 μl of supernatant was transferred for LC/MS-MS analysis and diluted with an additional 40 μl of MilliQ water. Previously optimized LC/MS-MS parameters were used for analysis (see LC/MS-MS section).
LC-MS analysis was performed on a Q Exactive high resolution mass spectrometer (Thermo Fisher Scientific, Waltham, Mass.) coupled to a Thermo Scientific Dionex UltiMate 3000 binary system. Chromatography was performed with a Kinetex C18 column (2.1×50 mm; particle size 1.7 μm, Phenomenex, Torrance, Calif.) using a reverse phase gradient elution, ACN:H2O (60:40) and 10 mM ammonium acetate for mobile phase A and IPA:ACN:MeOH (80:10:10) and 10 mM ammonium acetate for mobile phase B. A flow rate of 300 μl/min was used, with a gradient consisting of 20% B held for 0.5 min, followed by linear increase to 95% in 3.5 min, held for 2.2 min and return to the initial 20% B in 0.3 min. The column was equilibrated for 1.5 min before the next injection, and the temperature of column and sample tray were held at 50 and 4° C., respectively. The column retention time for CD101 and micafungin was 3.32 min and 3.2 min respectively.
Key MS parameters were as follow: the spray voltage, 3.5 kV; capillary temperature, 320° C.; HESI probe temperature, 400° C.; S-lens RF level, 50. […]

The nature of data set [2]: Serum drug levels after single dose in mice. Format: in vivo. The note with it: mouse, single dose 5 mg/kg, read-out: serum drug level.
Another data set concerns C. glabrata BG2. Briefly: MIC against C. glabrata BG2. It counts as cell-based. The note with it: Nakaseomyces glabratus; C. glabrata BG2, wild-type FKS genes.
For data set [3], the system named is wildtype strains of C. albicans. As to conditions: cited from earlier work.

A word on the MIC: it is the lowest concentration that inhibits growth of the organism. As for `CCCCCOc1ccc(-c2cc(-c3ccc(C(=O)N[C@H]4C[C@@H](O)[C@@H](O)NC(=O)[C@@H]5[C@@H](O)[C@@H](C)CN5C(=O)[C@H]([C@H](O)CC(N)=O)NC(=O)[C@H]([C@H](O)[C@@H](O)c5ccc(O)c(OS(=O)(=O)O)c5)NC(=O)[C@@H]5C[C@@H](O)CN5C(=O)[C@H]([C@@H](C)O)NC4=O)cc3)no2)cc1` [micafungin] (X1-[Orn(4R-OH,5R-OH)]T[Hyp][hTyr(3S-OH,4S-OH,3'-OSO3H)][Gln(3R-OH)][Pro(3S-OH,4S-Me)]; lactam 1-C), in data set [1] (5 mg/kg once daily, 24 hours post third dose (steady-state)), the “drug level in liver lesions” value is on record as “under 5 μg/ml”. Moreover, the concentration at 24 h in data set [1] (5 mg/kg once daily, 24 hours post second dose, read-out: drug level in liver lesions) was 3500 ng/mL; in data set [1] (5 mg/kg once daily, 24 hours post third dose (steady-state), read-out: drug level in liver lesions), 4900 ng/mL; in data set [1] (5 mg/kg once daily, steady-state after three doses, read-out: drug level in surrounding non-lesion liver tissues), 500 ng/mL; in data set [1] (ip, single IP dose 5 mg/kg, 24 hours post-dose, read-out: drug concentration in liver lesions) it was 3400 ng/mL; in data set [1] (ip, single IP dose 5 mg/kg, 24 hours post-dose, read-out: drug concentration in uninvolved surrounding liver tissue), 1000 ng/mL; in data set [2] (24 hours), about 2000 ng/mL. Moreover, the concentration at 6 h in data set [1] (ip, single IP dose 5 mg/kg, read-out: drug concentration in liver lesions) is 4900 ng/mL; in data set [1] (ip, single IP dose 5 mg/kg, read-out: drug concentration in uninvolved surrounding liver tissue), 6500 ng/mL; in data set [2] (6 hours), 7000 to 10000 ng/mL. The compound also registered an MIC with C. glabrata BG2 of 0.06 µg/mL (≈ 0.0472 µM). For the same compound, the “mutant prevention concentration (MPC)” value in data set [3] was 16 µg/mL.
